In patent publication US9845330B2, “6-nitro-2,3-dihydroimidazo[2,1-b]oxazoles and a process for the preparation thereof” (priority 2013, dated 2017):
In brackets after ≈: the same amount, converted by molar mass. Like-named read-outs stand apart in the source and are kept apart here.

What was measured:
[1] = system: M. tuberculosis H37Rv (ATCC 27294); assay: MIC by broth dilution method, M. tuberculosis H37Rv; assay type: cell-based; settings: Mycobacterium tuberculosis, 504 h
[2] = system: macrophage J774 cells line; assay: Cytotoxicity assay (MTT) in macrophage J774 cells; assay type: cell-based; settings: J774 cells, 24 hrs, MTT
Experimental: The study was carried out using macrophage J774 cells line (ATCC-USA). Cells were grown in Rosewell Park Memorial Institute Medium (RPMI) containing 10% fetal calf serum (FCS) and supplemented with 75 mg/liter penicillin, 100 mg/liter streptomycin, 110 mg/liter Sodium pyruvate, 2.38 gm/liter HEPES, 0.05 mM 2 β-mercaptoethanol, and 2 gm/liter NaHCO3, in a humidified atmosphere in 5% CO2 at 37° C., and were sub-cultured at 1:4 ratio once a week.
Cells were plated at a density of 3×10^4 cells/cm^2 and maintained in culture medium for 12 hours. Cells were seeded onto 96-well flat bottom plates and FCS was reduced to 5% for the experiment. Stock solutions of compounds IA1 to IIC10 were prepared fresh to avoid oxidation. Cells were incubated with the compounds (40 μg/ml) for 24 hrs.
After the completion of incubation, the medium was removed and cell viability was evaluated by assaying for the ability of functional mitochondria to catalyze the reduction of 3-(4,5-dimethylthiazol-2-yl)-2,5-diphenyltetrazolium bromide (MTT) to form formazan salt by mitochondrial dehydrogenases, and determined by Elisa reader at 450 nm (Multiskan Spectrum; Thermo Electron Corporation, USA). Percentage cytotoxicity was calculated with respect to the untreated cells.

[3] = broth dilution, 3 weeks, read-out: MIC M. tb H37Rv
[4] = text summary: sensitive H37Rv as well as MDR and XDR strains of M. tuberculosis, read-out: MIC value

Compound | MIC [1, 3] [µg/mL] | Cytotoxicity [2] [µg/mL] | MIC [1, 4] [µg/mL]
CN(c1ccccc1)S(=O)(=O)c1ccc(OC[C@@]2(C)Cn3cc([N+](=O)[O-])nc3O2)cc1 [IIB4, (R)—N-methyl-4-{(2-methyl-6-nitro-2,3-dihydroimidazo[2,1-b]oxazol-2-yl)methoxy}-N-phenylbenzenesulfonamide] | 4 (≈ 9 µM) | >40 | 
C[C@]1(COc2ccc(-n3nnnc3Oc3ccc(C(F)(F)F)cc3)cc2)Cn2cc([N+](=O)[O-])nc2O1 [IB8, (R)-2-{4-[5-(4-trifluoromethylphenoxy)-1H-tetrazol-1-yl]phenoxymethyl}-2,3-dihydro-2-methyl-6-nitroimidazo[2,1-b]oxazole] | 4 (≈ 7.95 µM) | >40 | 1 to 4 (≈ 1.99 to 7.95 µM)
C[C@]1(COc2ccccc2-n2cc(-c3ccc(C(F)(F)F)cc3)nn2)Cn2cc([N+](=O)[O-])nc2O1 [IA22, (R)-2-{2-[4-(4-trifluoromethylphenyl)-1H-1,2,3-triazol-1-yl]phenoxymethyl}-2,3-dihydro-2-methyl-6-nitroimidazo[2,1-b]oxazole] | 4 (≈ 8.22 µM) | >40 | 
COc1ccc(NC(=S)Nc2ccc(OC[C@@]3(C)Cn4cc([N+](=O)[O-])nc4O3)cc2)cc1 [IIA7, (R)-1-(4-methoxyphenyl)-3-{4-(2-methyl-6-nitro-2,3-dihydroimidazo[2,1-b]oxazol-2-yl)methoxyphenyl}thiourea] | 2 (≈ 4.39 µM) | >40 | 
C[C@]1(COc2ccc(-c3cc(-c4ccccn4)on3)cc2)Cn2cc([N+](=O)[O-])nc2O1 [IC9, (R)-2-{4-[5-(pyridin-2-yl)isoxazol-3-yl]phenoxymethyl}-2,3-dihydro-2-methyl-6-nitroimidazo[2,1-b]oxazole] | 2 (≈ 4.77 µM) | >40 | 
C[C@]1(COc2ccc(-n3cc(-c4cccc(F)c4)nn3)cc2)Cn2cc([N+](=O)[O-])nc2O1 [IA10, (R)-2-{4-[4-(3-fluorophenyl)-1H-1,2,3-triazol-1-yl]phenoxymethyl}-2,3-dihydro-2-methyl-6-nitroimidazo[2,1-b]oxazole] | 2 (≈ 4.58 µM) | >40 | 
C[C@]1(COc2cccc(-n3cc(-c4ccc(F)cc4)nn3)c2)Cn2cc([N+](=O)[O-])nc2O1 [IA17, (R)-2-{3-[4-(4-fluorophenyl)-1H-1,2,3-triazol-1-yl]phenoxymethyl}-2,3-dihydro-2-methyl-6-nitroimidazo[2,1-b]oxazole] | 2 (≈ 4.58 µM) | >40 | 
C[C@]1(COc2ccc(-n3nnnc3Oc3ccc(OC(F)(F)F)cc3)cc2)Cn2cc([N+](=O)[O-])nc2O1 [IB10, (R)-2-{4-[5-(4-trifluoromethoxyphenoxy)-1H-tetrazol-1-yl]phenoxymethyl}-2,3-dihydro-2-methyl-6-nitroimidazo[2,1-b]oxazole] | 1 (≈ 1.93 µM) | >40 | 1 to 4 (≈ 1.93 to 7.7 µM)
Cc1ccc(NS(=O)(=O)c2ccc(OC[C@@]3(C)Cn4cc([N+](=O)[O-])nc4O3)cc2)cc1 [IIB1, (R)-4-{(2-methyl-6-nitro-2,3-dihydroimidazo[2,1-b]oxazol-2-yl)methoxy}-N-(p-tolyl)benzenesulfonamide] | 2 (≈ 4.5 µM) | >40 | 
C[C@]1(COc2ccc(S(=O)(=O)N3CCN(c4ccccc4)CC3)cc2)Cn2cc([N+](=O)[O-])nc2O1 [IIC1, (R)-2-{4-(4-phenylpiperazin-1-yl)sulfonylphenoxymethyl}-2,3-dihydro-2-methyl-6-nitroimidazo[2,1-b]oxazole] | 1 (≈ 2 µM) | >40 | 
C[C@]1(COc2ccc(-n3cc(-c4ccc(F)cc4F)nn3)cc2)Cn2cc([N+](=O)[O-])nc2O1 [IA7, (R)-2-{4-[4-(2,4-difluorophenyl)-1H-1,2,3-triazol-1-yl]phenoxymethyl}-2,3-dihydro-2-methyl-6-nitroimidazo[2,1-b]oxazole] | 2 (≈ 4.4 µM) | >40 | 
C[C@]1(COc2ccc(-n3nnnc3-c3ccc(C(F)(F)F)cc3)cc2)Cn2cc([N+](=O)[O-])nc2O1 [IB5, (R)-2-{4-[5-(4-trifluoromethylphenyl)-1H-tetrazol-1-yl]phenoxymethyl}-2,3-dihydro-2-methyl-6-nitroimidazo[2,1-b]oxazole] | 1 (≈ 2.05 µM) | >40 | 1 to 4 (≈ 2.05 to 8.21 µM)
C[C@]1(COc2ccc(NC(=S)Nc3ccc(OC(F)(F)F)cc3)cc2)Cn2cc([N+](=O)[O-])nc2O1 [IIA8, (R)-1-(4-trifluoromethoxyphenyl)-3-{4-(2-methyl-6-nitro-2,3-dihydroimidazo[2,1-b]oxazol-2-yl)methoxyphenyl}thiourea] | 2 (≈ 3.93 µM) | >40 | 
C[C@]1(COc2ccccc2-n2cc(-c3ccc(F)cc3)nn2)Cn2cc([N+](=O)[O-])nc2O1 [IA21, (R)-2-{2-[4-(4-fluorophenyl)-1H-1,2,3-triazol-1-yl]phenoxymethyl}-2,3-dihydro-2-methyl-6-nitroimidazo[2,1-b]oxazole] | 1 (≈ 2.29 µM) | >40 | 
Cc1ccc(-c2nnnn2-c2ccc(OC[C@@]3(C)Cn4cc([N+](=O)[O-])nc4O3)cc2)cc1 [IB3, (R)-2-{4-[5-(4-methylphenyl)-1H-tetrazol-1-yl]phenoxymethyl}-2,3-dihydro-2-methyl-6-nitroimidazo[2,1-b]oxazole] | 4 (≈ 9.23 µM) | >40 | 1 to 4 (≈ 2.31 to 9.23 µM)
C[C@]1(COc2ccc(-n3nnnc3-c3ccc(OC(F)(F)F)cc3)cc2)Cn2cc([N+](=O)[O-])nc2O1 [IB2, (R)-2-{4-[5-(4-trifluoromethoxyphenyl)-1H-tetrazol-1-yl]phenoxymethyl}-2,3-dihydro-2-methyl-6-nitroimidazo[2,1-b]oxazole] | 2 (≈ 3.97 µM) | >40 | 1 to 4 (≈ 1.99 to 7.95 µM)
C[C@]1(COc2ccc(S(=O)(=O)Nc3ccc(OC(F)(F)F)cc3)cc2)Cn2cc([N+](=O)[O-])nc2O1 [IIB2, (R)-4-{(2-methyl-6-nitro-2,3-dihydroimidazo[2,1-b]oxazol-2-yl)methoxy}-N-(4 trifluoromethoxyphenyl)benzenesulfonamide] | 2 (≈ 3.89 µM) | >40 | 
C[C@]1(COc2ccc(-n3nnnc3Oc3ccc(F)cc3)cc2)Cn2cc([N+](=O)[O-])nc2O1 [IB7, (R)-2-{4-[5-(4-fluorophenoxy)-1H-tetrazol-1-yl]phenoxymethyl}-2,3-dihydro-2-methyl-6-nitroimidazo[2,1-b]oxazole] | 2 (≈ 4.41 µM) | >40 | 1 to 4 (≈ 2.21 to 8.82 µM)
C[C@]1(COc2cccc(-n3cc(-c4ccc(F)cc4F)nn3)c2)Cn2cc([N+](=O)[O-])nc2O1 [IA20, (R)-2-{3-[4-(2,4-difluorophenyl)-1H-1,2,3-triazol-1-yl]phenoxymethyl}-2,3-dihydro-2-methyl-6-nitroimidazo[2,1-b]oxazole] | 4 (≈ 8.8 µM) | >40 | 
C[C@]1(COc2ccc(NC(=S)Nc3ccc(C(F)(F)F)cc3)cc2)Cn2cc([N+](=O)[O-])nc2O1 [IIA10, (R)-1-(4-trifluoromethylphenyl)-3-{4-(2-methyl-6-nitro-2,3-dihydroimidazo[2,1-b]oxazol-2-yl)methoxyphenyl}thiourea] | 4 (≈ 8.11 µM) | >40 | 
CCCCCCCc1cn(-c2ccc(OC[C@@]3(C)Cn4cc([N+](=O)[O-])nc4O3)cc2)nn1 [IA16, (R)-2-{4-[4-heptyl-1H-1,2,3-triazol-1-yl]phenoxymethyl}-2,3-dihydro-2-methyl-6-nitroimidazo[2,1-b]oxazole] | 4 (≈ 9.08 µM) | >40 | 
